Measured values as given in patent US5789541A, “Compounds for inhibition of proteolysis” (President and Fellows of Harvard College, priority 1995, dated 1998).
Where two headings read alike, the source gives them in different places. Non-standard residues stand in square brackets, D forms with d. No end group written: not given here. *: point of attachment. Farnesyl = CC(C)=CCC/C(C)=C/CC/C(C)=C/C*

How the values were obtained:
Format in all cases: biochemical
[1] = test system: protease of bovine liver microsomal membranes; assay: Substrate kinetics/activity: formation of N-[3H]-AFC from peptide substrates by calf liver microsomal protease; parameters: key to substrate activity (Table 1, in words): Analogs referred to as inactive did not show detectable activity as substrate when used at concentration of 10mM and prolonged incubation time (16 hours); weakly active: Where marginal activity is noted, detectable activity is observed under prolonged incubation periods, but the activity is <5% that observer, with AFC-V-I-S; details: for substrate activity for the protease (in words): calf liver microsomal preparation; for substrate activity (Table 1, in words): 10mM, prolonged incubation time (16 hours)
Description: Briefly, N-[^3 H]-Acetyl-S-farnesyl-L-cys-L-val-L-ile-L-ser or N-[^3 H]acetyl-S-farnesyl-(SEQ ID NO: 1) at a concentration of 10 μM was incubated with bovine liver microsomal membranes (preparation described below). Periodically, 50 μL aliquots were withdrawn from the incubation mixture and the reaction was quenched with 500μL of chloroform/methanol (1:1, v/v). N-[^3 H]-AFC was extracted after thoroughly mixing the mixture for 1 minute and extracting with chloroform. Phase separation was achieved by adding 500μL of 1M citric acid. The chloroform layer was evaporated under nitrogen, resuspended in hexane/isopropanol/TFA (85:15:0.1), and authentic AFC standard was added for detection at 210 nm. The sample was injected on a silica HPLC column (Dynamax 60A, Rainin, Woburn, Mass.) and eluted with the same solvent. Radioactivity was counted with an on-line Berthold (Nashua, N.H.) LB 506-C HPLC radioactivity monitor.
(§1) Measurement of Proteolytic Activity Bovine liver microsomes were prepared according to Walter et al. (Meth. Enzym. 96:84, 1983). Kinetic measurements were performed by incubating 0.2 mg/mL protein with peptide substrates in 200 mM HEPES buffer containing 100 mM NaCl and 5 mM MgCl2 at pH 7.4, all in a final volume of 50 μL. The peptide substrates were added in DMSO to a final concentration of 4% (v/v) at 37°. The enzymatic reaction was quenched at the appropriate time by the addition of 0.5 mL of chloroform/methanol (1/1, v/v). Phase separation was achieved by adding 0.5 mL 1M citric acid. The chloroform layer was separated and evaporated under nitrogen and the residue was dissolved in n-hexane/2-propanol/TFA containing cold AFC. The formation of the product ^3 H-AFC was followed by HPLC analysis at 210 nm according to Perez-Sala et al. (Proc. Nat'l Acad. Sci. USA 88:3043, 1991). The samples were injected onto a normal phase HPLC column (Dynamax 60, Rainin, Woburn, Mass.) connected to a model LB 506-C on-line radioactivity monitor (Berthold, Nashua, N.H.). The column was eluted with n-hexane/2-propanol/TFA [85:15:0.1 (v/v/v)] at 1.5 mL/min.
For these experiments the substrates were dissolved in DMSC and incubated with calf liver microsomal membranes (0.2 mg of protein/mL) (Walter et al., supra) as described above. The amount of radioactive product was determined as described above. The reaction was quenched with 500 μL of CHCl3 /MeOH (1:1, v/v), and the radioactive N-terminal amino acid, i.e. N-[^3 H]AFC, was extracted after thoroughly agitating this mixture. Phase separation was achieved by adding 500 μL of 1M citric acid. After the chloroform layer was evaporated under nitrogen the residue was resuspended in n-hexane/isopropanol/TFA (90:10:0.01) and non-radioactive AFC was added as a standard for UV detection (210 nm). The sample was injected on a normal-phase HPLC column (Dynamax 60A, Rainin), and elution was performed with the same solvent at flow rate l.5 ml/min. Radioactivity was counted with an on-line Berthold (Nashua, NH) LB 506-C HPLC radioactivity monitor. The limit of efficiency of this assay was 3× the background counts/min (~150 cpm), which permits detection of products from substrates whose activities are 0.4% of the Vmax of AFC-Val-Ile-Ser (SEQ ID NO: 1) (1.13 pmol/min/mg). The retention times for AGC, AFC, and AGGC are 7.58, 7.26, and 7.00 min respectively, and for AGC-Val-Ile, AFC-Val-Ile, and AGGC-Val-Ile, they are 5.48, 6.54, and 5.08 min respectively.

[2] = test system: protease of bovine liver microsomal membranes; assay: Inhibition of proteolysis of [3H]-AFC-val-ile-ser by calf liver microsomal protease; details: 4 μM [3H]-AFC-val-ile-ser substrate; 20 μM of the dipeptide or tripeptide
Description: as §1
As expected, the proteolysis of [^3 H]-AFC-val-ile-ser or N-[^3 H]-(SEQ ID NO: 1) was inhibited by the dipeptide substrate (AFC-val) and by the tripeptide substrate (AFC-val-ile). […]

[3] = test system: proteolytic enzymatic activity in dog pancreatic microsomes; assay: Proteolysis of tetrapeptide by dog pancreatic microsomes, extended incubation; details: extended incubation conditions
Description: A similar stereospecific proteolytic enzymatic activity was also found in dog pancreatic microsomes. Under extended incubation conditions, where 54% of the tetrapeptide substrate 1 was cleaved by these microsomes, no proteolysis of D-AFC-val-ile-ser 2 could be detectec, (<1%). […] Synthesis of N-[^3 H]-acetyl-S-all-trans-farnesyl-L-Cys-L-Val-L-Ile-L-Ser or N-[^3 H]acetyl-S-farnesyl-(SEQ ID NO: 1) A solution of N-[^3 H]-acetyl-S-all-trans-farnesyl-L-Cys-L-Val-L-Ile (1.12 μmol, 250 mCi/mmol), L-serine hydrochloride methyl ester (20 mg, 0.13 mmol), and 1-hydroxybenzotriazole hydrate (17.4 mg, 0.13 mmol) in 3 mL of DMF was cooled to 0° C. 1-(3-Dimethylamino)propyl-3-ethyl carbodiimide hydrochloride (17.2 mg, 0.09 mmol) and N-methylmorpholine (14.1 μL, 13 mg, 0.13 mmol) were added at 0° C. The mixture was stirred at 0° C. under argon for 2 hours and at room temperature for 24 hours. Water (20 mL) was added and the mixture was extracted with ethyl acetate (4×20 mL). The combined organic layer was washed with 10% HCl, saturated sodium bicarbonate, and water, dried over anhydrous magnesium sulfate, filtered, and evaporated. The residue was dissolved in 3 mL of acetonitrile and 3 mL of 10% aqueous sodium carbonate was added. The mixture was stirred at room temperature for 24 h. 10% HCl was added to adjust the pH to 2. […] Recovery of radioactivity was 28.2 μCi, 1.13×10^-4 mmol. […]

[4] = Table 1, substrate of the protease, calf liver microsomal membranes, average of two determinations ±S.D., same enzyme preparation
[5] = Table 1, substrate of the protease, calf liver microsomal membranes, average of two determinations ±S.D., same enzyme preparation, read-out: KM
[6] = substrate of the protease, liver microsomal membranes, read-out: KM

| Molecule | substrate activity for the protease (in words) [1] | substrate activity (Table 1, in words) ([1]; Table 1) | also measured |
| --- | --- | --- | --- |
| N-[^3 H]-acetyl-S-all-trans-farnesyl-L-Cys-L-Val-L-Ile-L-Met (C(Farnesyl)VIM; not fully specified (N-terminus); printed as N-[^3 H]-acetyl-S-all-trans-farnesyl-L-Cys-L-Val-L-Ile-L-Met; also: tritium label on the N-acetyl) [AFC-Val-Ile-Met (9)] | good substrate | – | Vmax [1, 4]: 126.3 pmol/min/mg; Km [1, 5]: 2.96 ± 0.35 µM |
| N-[^3 H]-Acetyl-S-thio-t-butyl-L-Cys-L-Val-L-Ile [t-butylthio-Cys-Val-Ile (5)] | Neither analog was measurably processed | inactive | – |
| N-acetyl-S-trans-geranyl-L-Cys-L-Val-L-Ile [AGC-Val-Ile (3)] | good substrates | – | Vmax [1, 4]: 19.35 ± 1.12 pmol/min/mg; Km [1, 5]: 14.6 ± 2.14 µM |
| N-[^3 H]-Acetyl-L-Cys-L-Val-L-Ile [Cys-Val-Ile (4)] | Neither analog was measurably processed | inactive | – |
| N-acetyl-S-all-trans-farnesyl-D-Cys-D-Val-L-Ile [D-D-L] | inactive | – | – |
| acetyl-S-all-trans-farnesyl-L-Cys-Val-Ile [AFC-Val-Ile (1)] | – | – | Vmax [1, 4]: 57.7 ± 5 pmol/min/mg; Vmax, previously measured ([1]; former measurement on a different microsome preparation from a different animal): 65.6 pmol/min/mg; Km ([1]; former measurement on a different microsome preparation from a different animal, read-out: KM, previously measured): 12.6 µM; Vmax ([1]; substrate of the protease): 58 ± 4.9 pmol/min/mg; Km [1, 6]: 9.2 ± 0.21 µM; diminution in substrate cleavage [2]: approximately 50% |
| N-[^3 H]-Acetyl-S-all-trans-geranylgeranyl-L-Cys-L-Val-L-Ile [AGGC-Val-Ile (2)] | good substrates | – | Vmax [1, 4]: 26.20 ± 0.97 pmol/min/mg; Km [1, 5]: 4.01 ± 0.4 µM; Vmax ([1]; substrate of the protease): 19.35 pmol/min/mg; Km [1, 6]: 14.6 µM |
| CC(=O)N[C@@H](CSC/C=C(\C)CC/C=C(\C)CCC=C(C)C)C(N)=O [AFC amide] | not a substrate | – | – |
| N-[^3 H]-Acetyl-S-all-trans-geranylgeranyl-D-cys-L-Val-L-Ile [AGGC-Val-Ile (2) D-L-L] | no measurable protease activity | inactive | – |
| N-acetyl-S-farnesyl-L-cysteine-L-val-L-ile-L-ser [AFC-val-ile-ser] | – | – | Vmax ([1]; bovine liver microsomal membranes): 0.236 ± 0.008 nmol/min/mg protein; Km [1, 6]: 4.8 µM; tetrapeptide cleaved [3]: 54% |
| N-acetyl-S-trans-geranyl-D-Cys-L-Val-Ile [AGC-Val-Ile (3) D-L-L] | no measurable protease activity | inactive | – |
| N-[^3 H]-acetyl-S-all-trans-farnesyl-D-Cys-L-Val-L-Ile-L-Ser [D-AFC-val-ile-ser] | did not occur | – | tetrapeptide cleaved [3]: < 1% |
| N-[^3 H]-acetyl-S-all-trans-farnesyl-L-Cys-L-Val-L-Ile-D-Met ({(3H)‑acetyl}-C(Farnesyl)VI[dM]) [AFC-Val-Ile-Met (10)] | processed to some extent | weakly active (Where marginal activity is noted, detectable activity is observed under prolonged incubation periods, but the activity is <5% that observer, with AFC-V-I-S) | – |
| N-Ac-S-all-trans-farnesyl-D-Cys-L-Val-L-Ile [AFC-Val-Ile (6)] | – | inactive | – |
| N-[^3 H]-acetyl-S-all-trans-farnesyl-L-Cys-L-Val-D-Ile [AFC-Val-Ile (8)] | did not have substrate activity | inactive | – |
| N-acetyl-S-all-trans-farnesyl-L-Cys-D-Val-L-Ile [AFC-Val-Ile (7)] | did not have substrate activity | inactive | – |
